{"source": "patent US11028078B2", "about": "(The Johns Hopkins University, priority 2011, dated 2021)", "key": {"[1]": {"test_system": "Gli1 transcript", "assay": "Quantification of Gli1 transcript by TaqMan analysis in MB cells (Hh pathway)", "type": "cell-based, mouse", "settings": "Gli1 transcript fold induction score; MB cells exposed 24 h at the IC90 for MB proliferation", "text": "Inhibitors of the Hh pathway are known to inhibit MB cell proliferation. However, MB cell proliferation is also affected by drugs with targets other than Hh signaling.\nFollowing drug exposure, cells were washed in PBS and pelleted by centrifugation at 300×g. Cell pellets were lysed in Trizol reagent (Invitrogen). Total RNA was separated and collected in the aqueous phase following centrifugation of lysate in the presence of chloroform. Total RNA was ethanol precipitated and purified over RNeasy Mini Kit (Qiagen) filter columns per manufacturer's recommendations. Transcript levels were quantified using gene-specific TaqMan primer/probe sets and the StepOne Plus Real-Time PCR system (Applied Biosystems) on cDNA reverse transcribed using the QuantiTect Reverse Transcription Kit (Qiagen) per manufacturers' recommendations. Results were quantified using StepOne Plus software v2.1 (Applied Biosystems) and were expressed as fold induction relative to control samples using the A ΔCt (2^−ΔΔCt) method with actin as an internal control. The primer/probe set (Applied Biosystems) for TaqMan PCR for mouse Gli-1 was Mm00494645_m1, and for mouse actin was Mm00607939_s1."}, "[2]": {"test_system": "MB cultures derived from Ptch−/+; p53−/− mice", "assay": "Medulloblastoma (MB) proliferation assay", "type": "cell-based, mouse", "settings": "mouse medulloblastoma cultures, 96 h; relative to itraconazole", "text": "These cultures were derived from Ptch^−/+; p53^−/− mice that spontaneously develop medulloblastoma associated with ligand independent Hh pathway activation.\nMB cultures were derived from mouse Ptch^−/+; p53^−/− MB grown as hind-flank allografts in nude mice (Harlan). Briefly, tumors were mechanically disrupted and made into single cell suspensions by two passages through a 70 μm nylon filter. Cells were pelleted by centrifugation and resuspended in PBS pH 7.4 twice. The cell suspension was then subjected to centrifugation at 1000×g for 25 min over a ficoll gradient. The viable cell layer formed at the ficoll boundary was then collected, suspended in PBS, and pelleted by centrifugation. The resulting pellet was then suspended and cultured as “neurospheres” in Neurobasal Media-A supplemented with retinoic acid deficient B-27 extract (NBMedia). Cells were cultured for three passages, with neurospheres disaggregated using Accumax (Innovative Cell Technologies) between passages.\nCultured MB neurospheres were disaggregated as described and 1×10^4 cells were seeded into wells of a 96-well assay plate in NBMedia and exposed to multiple analogue concentrations: Relative cell numbers following a 96-h incubation were quantified by CellTiter 96® AQueous One Solution Cell Proliferation Assay (Promega) per manufacturer's recommendations using a SpectraMax M2e spectrophotometer and SoftMax Pro software (Molecular Devices). Data was analyzed using Prism5 (GraphPad Software) and IC50 and IC90 values were determined from dose-response curves fitted to mean corrected absorbance normalized to control treatment."}, "[3]": {"test_system": "HUVEC", "assay": "HUVEC proliferation assay ([3H]thymidine incorporation)", "type": "cell-based, human", "settings": "HUVEC; for Proliferation (IC50/IC50 Itra): IC50 of analog relative to IC50 of itraconazole", "method": "The activity of the analogs against HUVEC proliferation, an in vitro proxy for angiogenesis inhibition (Table 3) was analyzed. […]\nPooled HUVEC (Lonza) were grown in EGM-2 bullet kit media (Lonza) and used at passage eight or lower. The proliferation assays were conducted as previously described (Nacev, B.; Low, W. K.; Huang, Z.; Su, T.; Su, Z.; Alkuraya, H.; Kasuga, D.; Sun, W.; Trager, M.; Braun, M.; Fischer, G.; Zhang, K.; Liu, J. O., Acalcineurin-independent mechanism of angiogenesis inhibition by anon-immunosuppressive Cyclosporin Aanalog. J. Pharmacol. Exp. Ther. 2011, DOI:10.1124/jpet.111.18085)."}, "[4]": {"test_system": "VEGFR2", "assay": "VEGFR2 glycosylation in HUVEC (Western blot scoring)", "type": "cell-based, human", "settings": "VEGFR2 hypoglycosylation score in HUVEC, 2 μM, 24 h", "method": "VEGFR2 hypoglycosylation was scored either robust (++), intermediate (+), or absent (−) (FIG. 6).\nHUVEC were seeded at 5×10^4 per well of a 6-well plate in 3 mL of media. After an overnight recovery, the media was replaced with 2 mL fresh media and the analogs were added from 200× stocks in DMSO. Following a 24-h incubation, the media was aspirated and 2×SDS sample buffer was added to the cells which were incubated on ice for 10 min and then boiled for 10 min. […] Following three washes in TBS-T, the membrane was incubated with anti-rabbit horseradish peroxidase conjugated IgG (GE Healthcare) (1:5000-1:10000 dilution) in 1% BSA in TBS-T. The membranes were washed three times in TBS-T, incubated for 1-5 minutes with ECL substrate (Immobilon Wester, Milipore) and visualized (Kodak Image Staion 440 CF)."}}, "data": [{"molecule": "CC(C)Cn1ncn(-c2ccc(N3CCN(c4ccc(OC[C@@H]5CO[C@@](Cn6cncn6)(c6ccc(Cl)cc6Cl)O5)cc4)CC3)cc2)c1=O", "note": "(relative stereo) [Compound 7f, cis-(2S,4R)-4-[4-[4-[4-[[2-(2,4-Dichlorophenyl)-2-(H,2,4-triazol-1-ylmethyl)-1,3-dioxolan-4-yl]methoxy]phenyl]-lpiperazinyl]phenyl]-2,4-dihydro-2-isobutyl-3H-1,2,4-triazol-3-one]", "values": [{"measurement": "Gli I Inhibition (IC90 Prolif. dose)", "setting": "[1]", "result": "− (≥0.45)"}, {"measurement": "MB Proliferation (IC50/IC50 Itra)", "setting": "[2]", "result": 0.86}, {"measurement": "Proliferation (IC50/IC50 Itra)", "setting": "[3]", "result": 1.32}, {"measurement": "Glycosylation (2 μM dose)", "setting": "[4]", "result": "++"}]}, {"molecule": "CCC(CC)n1ncn(-c2ccc(N3CCN(c4ccc(OCC5COC(Cn6cncn6)(c6ccc(Cl)cc6Cl)O5)cc4)CC3)cc2)c1=O", "note": "[Compound 7j, cis-(2S,4R)-4-[4-[4-[4-[[2-(2,4-Dichlorophenyl)-2-(1H-1,2,4-triazol-1-ylmethyl)-1,3-dioxolan-4-yl]methoxy]phenyl]-lpiperazinyl]phenyl]-2,4-dihydro-2-(1-ethylpropyl)-3H-1,2,4-triazol-3-one]", "values": [{"measurement": "Gli I Inhibition (IC90 Prolif. dose)", "setting": "[1]", "result": "++ (≤0.15)"}, {"measurement": "MB Proliferation (IC50/IC50 Itra)", "setting": "[2]", "result": 0.54}, {"measurement": "Proliferation (IC50/IC50 Itra)", "setting": "[3]", "result": 1.10}, {"measurement": "Glycosylation (2 μM dose)", "setting": "[4]", "result": "+"}]}, {"molecule": "CCCC(C)n1ncn(-c2ccc(N3CCN(c4ccc(OC[C@@H]5CO[C@@](Cn6cncn6)(c6ccc(Cl)cc6Cl)O5)cc4)CC3)cc2)c1=O", "note": "(relative stereo) [Compound 7h, cis-(2S,4R)-4-[4-[4-[4-[[2-(2,4-Dichlorophenyl)-2-(1H-1,2,4-triazol-1-ylmethyl)-1,3-dioxolan-4-yl]methoxy]phenyl]-lpiperazinyl]phenyl]-2,4-dihydro-2-(1-methylbutyl)-3H-1,2,4-triazol-3-one]", "values": [{"measurement": "Gli I Inhibition (IC90 Prolif. dose)", "setting": "[1]", "result": "++ (≤0.15)"}, {"measurement": "MB Proliferation (IC50/IC50 Itra)", "setting": "[2]", "result": 0.38}, {"measurement": "Proliferation (IC50/IC50 Itra)", "setting": "[3]", "result": 0.75}, {"measurement": "Glycosylation (2 μM dose)", "setting": "[4]", "result": "++"}]}, {"molecule": "cis-(2R,4S)-4-[4-[4-[4-[[2-(2,4-Dichlorophenyl)-2-(1H-1,2,4-triazol-1-ylmethyl)-1,3-dioxolan-4-yl]methoxy]phenyl]-lpiperazinyl]phenyl]-2,4-dihydro-2-(pent-4-ynyl)-3H-1,2,4-triazol-3-one [Compound 7r]", "values": [{"measurement": "Gli I Inhibition (IC90 Prolif. dose)", "setting": "[1]", "result": "++ (≤0.15)"}, {"measurement": "MB Proliferation (IC50/IC50 Itra)", "setting": "[2]", "result": 0.71}, {"measurement": "Proliferation (IC50/IC50 Itra)", "setting": "[3]", "result": 0.14}, {"measurement": "Glycosylation (2 μM dose)", "setting": "[4]", "result": "−"}]}, {"molecule": "CC(C)CCn1ncn(-c2ccc(N3CCN(c4ccc(OC[C@@H]5CO[C@@](Cn6cncn6)(c6ccc(Cl)cc6Cl)O5)cc4)CC3)cc2)c1=O", "note": "(relative stereo) [Compound 7i, cis-(2S,4R)-4-[4-[4-[4-[[2-(2,4-Dichlorophenyl)-2-(1H-1,2,4-triazol-1-ylmethyl)-1,3-dioxolan-4-yl]methoxy]phenyl]-lpiperazinyl]phenyl]-2,4-dihydro-2-(3-methylbutyl)-3H-1,2,4-triazol-3-one]", "values": [{"measurement": "Gli I Inhibition (IC90 Prolif. dose)", "setting": "[1]", "result": "++ (≤0.15)"}, {"measurement": "MB Proliferation (IC50/IC50 Itra)", "setting": "[2]", "result": 0.41}, {"measurement": "Proliferation (IC50/IC50 Itra)", "setting": "[3]", "result": 1.42}, {"measurement": "Glycosylation (2 μM dose)", "setting": "[4]", "result": "+"}]}, {"molecule": "CC/C=C/CCn1ncn(-c2ccc(N3CCN(c4ccc(OCC5COC(Cn6cncn6)(c6ccc(Cl)cc6Cl)O5)cc4)CC3)cc2)c1=O", "note": "[Compound 7s, cis-(2S,4R)-4-[4-[4-[4-[[2-(2,4-Dichlorophenyl)-2-(1H-1,2,4-triazol-1-ylmethyl)-1,3-dioxolan-4-yl]methoxy]phenyl]-lpiperazinyl]phenyl]-2,4-dihydro-2-((E)-hex-3-enyl)-3H-1,2,4-triazol-3-one]", "values": [{"measurement": "Gli I Inhibition (IC90 Prolif. dose)", "setting": "[1]", "result": "++ (≤0.15)"}, {"measurement": "MB Proliferation (IC50/IC50 Itra)", "setting": "[2]", "result": 0.63}, {"measurement": "Proliferation (IC50/IC50 Itra)", "setting": "[3]", "result": 1.57}, {"measurement": "Glycosylation (2 μM dose)", "setting": "[4]", "result": "−"}]}, {"molecule": "CCn1ncn(-c2ccc(N3CCN(c4ccc(OC[C@@H]5CO[C@@](Cn6cncn6)(c6ccc(Cl)cc6Cl)O5)cc4)CC3)cc2)c1=O", "note": "(relative stereo) [Compound 7b, cis-(2S,4R)-4-[4-[4-[4-[[2-(2,4-Dichlorophenyl)-2-(1H-1,2,4-triazol-1-ylmethyl)-1,3-dioxolan-4-yl]methoxy]phenyl]-lpiperazinyl]phenyl]-2,4-dihydro-2-ethyl-3H-1,2,4-triazol-3-one]", "values": [{"measurement": "Gli I Inhibition (IC90 Prolif. dose)", "setting": "[1]", "result": "− (≥0.45)"}, {"measurement": "MB Proliferation (IC50/IC50 Itra)", "setting": "[2]", "result": 1.62}, {"measurement": "Proliferation (IC50/IC50 Itra)", "setting": "[3]", "result": 2.94}, {"measurement": "Glycosylation (2 μM dose)", "setting": "[4]", "result": "−"}]}, {"molecule": "CCCn1ncn(-c2ccc(N3CCN(c4ccc(OC[C@@H]5CO[C@@](Cn6cncn6)(c6ccc(Cl)cc6Cl)O5)cc4)CC3)cc2)c1=O", "note": "(relative stereo) [Compound 7c, cis-(2S,4R)-4-[4-[4-[4-[[2-(2,4-Dichlorophenyl)-2-(1H-1,2,4-triazol-1-ylmethyl)-1,3-dioxolan-4-yl]methoxy]phenyl]-lpiperazinyl]phenyl]-2,4-dihydro-2-propyl-3H-1,2,4-triazol-3-one]", "values": [{"measurement": "Gli I Inhibition (IC90 Prolif. dose)", "setting": "[1]", "result": "++ (≤0.15)"}, {"measurement": "MB Proliferation (IC50/IC50 Itra)", "setting": "[2]", "result": 1.01}, {"measurement": "Proliferation (IC50/IC50 Itra)", "setting": "[3]", "result": 1.06}, {"measurement": "Glycosylation (2 μM dose)", "setting": "[4]", "result": "+"}]}, {"molecule": "CC(C)n1ncn(-c2ccc(N3CCN(c4ccc(OC[C@@H]5CO[C@@](Cn6cncn6)(c6ccc(Cl)cc6Cl)O5)cc4)CC3)cc2)c1=O", "note": "(relative stereo) [Compound 7d, cis-(2S,4R)-4-[4-[4-[4-[[2-(2,4-Dichlorophenyl)-2-(1H-1,2,4-triazol-1-ylmethyl)-1,3-dioxolan-4-yl]methoxy]phenyl]-lpiperazinyl]phenyl]-2,4-dihydro-2-isopropyl-3H-1,2,4-triazol-3-one]", "values": [{"measurement": "Gli I Inhibition (IC90 Prolif. dose)", "setting": "[1]", "result": "− (≥0.45)"}, {"measurement": "MB Proliferation (IC50/IC50 Itra)", "setting": "[2]", "result": 1.06}, {"measurement": "Proliferation (IC50/IC50 Itra)", "setting": "[3]", "result": 2.18}, {"measurement": "Glycosylation (2 μM dose)", "setting": "[4]", "result": "−"}]}, {"molecule": "Cn1ncn(-c2ccc(N3CCN(c4ccc(OC[C@@H]5CO[C@@](Cn6cncn6)(c6ccc(Cl)cc6Cl)O5)cc4)CC3)cc2)c1=O", "note": "(relative stereo) [Compound 7a, cis-(2S,4R)-4-[4-[4-[4-[[2-(2,4-Dichlorophenyl)-2-(UH-1,2,4-triazol-1-ylmethyl)-1,3-dioxolan-4-yl]methoxy]phenyl]-lpiperazinyl]phenyl]-2,4-dihydro-2-methyl-3H-1,2,4-triazol-3-one]", "values": [{"measurement": "Gli I Inhibition (IC90 Prolif. dose)", "setting": "[1]", "result": "− (≥0.45)"}, {"measurement": "MB Proliferation (IC50/IC50 Itra)", "setting": "[2]", "result": 2.71}, {"measurement": "Proliferation (IC50/IC50 Itra)", "setting": "[3]", "result": 4.00}, {"measurement": "Glycosylation (2 μM dose)", "setting": "[4]", "result": "−"}]}, {"molecule": "O=c1n(-c2ccc(N3CCN(c4ccc(OCC5COC(Cn6cncn6)(c6ccc(Cl)cc6Cl)O5)cc4)CC3)cc2)cnn1CCCCCCc1ccccc1", "note": "[Compound 7n, cis-(2S,4R)-4-[4-[4-[4-[[2-(2,4-Dichlorophenyl)-2-(1H-1,2,4-triazol-1-ylmethyl)-1,3-dioxolan-4-yl]methoxy]phenyl]-lpiperazinyl]phenyl]-2,4-dihydro-2-(6-phenylhexyl)-3H-1,2,4-triazol-3-one]", "values": [{"measurement": "Gli I Inhibition (IC90 Prolif. dose)", "setting": "[1]", "result": "++ (≤0.15)"}, {"measurement": "MB Proliferation (IC50/IC50 Itra)", "setting": "[2]", "result": 0.69}, {"measurement": "Proliferation (EC50/IC50 Itra)", "setting": "[3]; footnote g: EC50 of analog relative to IC50 of itraconazole", "result": "1.45^g"}, {"measurement": "Glycosylation (2 μM dose)", "setting": "[4]", "result": "−"}]}]}
